Test results published in ChEMBL document CHEMBL4152224, “The Identification of Potent, Selective, and Orally Available Inhibitors of Ataxia Telangiectasia Mutated (ATM) Kinase: The Discovery of AZD0156 (8-{6-[3-(Dimethylamino)propoxy]pyridin-3-yl}-3-methyl-1-(tetrahydro-2 H-pyran-4-yl)-1,3-dihydro-2 H-imidazo[4,5- c]quinolin-2-one)” (J Med Chem, 2018).
In brackets after ≈: the same amount, converted by molar mass. Activity calls are given as the source filed them. The calls are words filed in the database; no cut-off is given here.

Assays:
[1] = Buffer/octanol partition coefficient, log D of the compound at pH 7.4 by shake flask method; type: physicochemical
[2] = Thermodynamic solubility of the compound in 0.1M aqueous phosphate buffer at pH 7.4 after 24 hrs by LC-UV analysis; type: physicochemical; settings: read-out: Therm_solubility
[3] = Intrinsic clearance in human hepatocytes assessed per million cells
[4] = Intrinsic clearance in rat hepatocytes assessed per million cells
[5] = target: Voltage-gated inwardly rectifying potassium channel KCNH2 (Homo sapiens, UniProt Q12809); assay: Inhibition of human ERG by electrophysiology assay
[6] = Apparent permeability across apical to basolateral side in MDCK cells overexpressing MDR1; type: ADME, cell-based, Canis lupus familiaris; settings: dog
[7] = Oral bioavailability in rat; type: ADME, organism-based; settings: in vivo
[8] = Volume of distribution at steady state in rat; type: ADME, organism-based; settings: in vivo, read-out: Vdss
[9] = Dissociation constant, pKa of the compound; type: physicochemical
[10] = Oral bioavailability in dog; type: ADME, organism-based, Canis lupus familiaris; settings: in vivo
[11] = Volume of distribution at steady state in dog; type: ADME, organism-based, Canis lupus familiaris; settings: in vivo, read-out: Vdss
[12] = target: Serine/threonine-protein kinase ATR (Homo sapiens, UniProt Q13535)
[13] = in vivo; settings: rat
[14] = in vivo; settings: rat; remark: listed apart in the source
[15] = in vivo; settings: dog
[16] = in vivo; settings: dog; remark: listed apart in the source
[17] = in vitro; settings: dog, MDCK-MDR1
Description: Efflux ratio of apparent permeability across basolateral to apical over apical to basolateral side in MDCK cells overexpressing MDR1

[18] = Apparent permeability across apical to basolateral side in human Caco2 cells; type: ADME, cell-based; settings: Caco-2
[19] = Solubility of the compound in phosphate buffer at pH 6.5; type: physicochemical
[20] = Solubility of the compound in simulated gastric fluid; type: physicochemical
[21] = Solubility of the compound in FaSSIF; type: physicochemical
[22] = Fraction unbound in rat plasma
[23] = Apparent permeability across apical to basolateral side in human Caco2 cells at pH 6.5; type: ADME, cell-based; settings: Caco-2, pH 6.5
[24] = target: Cytochrome P450 3A4 (Homo sapiens, UniProt P08684); assay: Inhibition of human CYP3A4; type: ADME
[25] = target: Cytochrome P450 2D6 (Homo sapiens, UniProt P10635); assay: Inhibition of human CYP2D6; type: ADME
[26] = target: Cytochrome P450 2C9 (Homo sapiens, UniProt P11712); assay: Inhibition of human CYP2C9; type: ADME
[27] = target: T1, Cytochrome P450 1A2 (Homo sapiens, UniProt P05177); assay: Inhibition of human CYP1A2; type: ADME
T1 sequence (P05177 whole entry): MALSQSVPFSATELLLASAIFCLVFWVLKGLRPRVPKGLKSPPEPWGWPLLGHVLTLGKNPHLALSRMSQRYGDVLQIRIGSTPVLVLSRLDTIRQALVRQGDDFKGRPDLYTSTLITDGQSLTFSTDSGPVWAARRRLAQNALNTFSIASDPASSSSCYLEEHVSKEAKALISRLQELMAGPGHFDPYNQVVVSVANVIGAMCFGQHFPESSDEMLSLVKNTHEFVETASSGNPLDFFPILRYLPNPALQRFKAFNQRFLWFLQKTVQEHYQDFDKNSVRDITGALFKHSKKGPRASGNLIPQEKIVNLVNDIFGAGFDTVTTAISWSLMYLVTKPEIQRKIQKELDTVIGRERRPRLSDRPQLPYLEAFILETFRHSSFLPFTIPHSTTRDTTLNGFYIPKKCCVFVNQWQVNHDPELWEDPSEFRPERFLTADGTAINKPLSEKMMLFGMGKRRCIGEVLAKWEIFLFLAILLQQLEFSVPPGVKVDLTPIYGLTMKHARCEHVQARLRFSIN

[28] = target: Cytochrome P450 2C19 (Homo sapiens, UniProt P33261); assay: Inhibition of human CYP2C19; type: ADME
[29] = target: Phosphatidylinositol 4,5-bisphosphate 3-kinase catalytic subunit beta isoform (Homo sapiens, UniProt P42338); assay: Inhibition of human PI3Kbeta (P118 to S1070 residues) expressed in mammalian expression system
[30] = target: Phosphatidylinositol 4,5-bisphosphate 3-kinase catalytic subunit gamma isoform (Homo sapiens, UniProt P48736); assay: Inhibition of human PI3Kgamma (S144 to A1102 residues) expressed in mammalian expression system
[31] = target: T2, Phosphatidylinositol 4,5-bisphosphate 3-kinase catalytic subunit delta isoform (Homo sapiens, UniProt O00329); assay: Inhibition of human PI3Kdelta (R108 to Q1044 residues) expressed in mammalian expression system
T2 sequence (O00329 whole entry): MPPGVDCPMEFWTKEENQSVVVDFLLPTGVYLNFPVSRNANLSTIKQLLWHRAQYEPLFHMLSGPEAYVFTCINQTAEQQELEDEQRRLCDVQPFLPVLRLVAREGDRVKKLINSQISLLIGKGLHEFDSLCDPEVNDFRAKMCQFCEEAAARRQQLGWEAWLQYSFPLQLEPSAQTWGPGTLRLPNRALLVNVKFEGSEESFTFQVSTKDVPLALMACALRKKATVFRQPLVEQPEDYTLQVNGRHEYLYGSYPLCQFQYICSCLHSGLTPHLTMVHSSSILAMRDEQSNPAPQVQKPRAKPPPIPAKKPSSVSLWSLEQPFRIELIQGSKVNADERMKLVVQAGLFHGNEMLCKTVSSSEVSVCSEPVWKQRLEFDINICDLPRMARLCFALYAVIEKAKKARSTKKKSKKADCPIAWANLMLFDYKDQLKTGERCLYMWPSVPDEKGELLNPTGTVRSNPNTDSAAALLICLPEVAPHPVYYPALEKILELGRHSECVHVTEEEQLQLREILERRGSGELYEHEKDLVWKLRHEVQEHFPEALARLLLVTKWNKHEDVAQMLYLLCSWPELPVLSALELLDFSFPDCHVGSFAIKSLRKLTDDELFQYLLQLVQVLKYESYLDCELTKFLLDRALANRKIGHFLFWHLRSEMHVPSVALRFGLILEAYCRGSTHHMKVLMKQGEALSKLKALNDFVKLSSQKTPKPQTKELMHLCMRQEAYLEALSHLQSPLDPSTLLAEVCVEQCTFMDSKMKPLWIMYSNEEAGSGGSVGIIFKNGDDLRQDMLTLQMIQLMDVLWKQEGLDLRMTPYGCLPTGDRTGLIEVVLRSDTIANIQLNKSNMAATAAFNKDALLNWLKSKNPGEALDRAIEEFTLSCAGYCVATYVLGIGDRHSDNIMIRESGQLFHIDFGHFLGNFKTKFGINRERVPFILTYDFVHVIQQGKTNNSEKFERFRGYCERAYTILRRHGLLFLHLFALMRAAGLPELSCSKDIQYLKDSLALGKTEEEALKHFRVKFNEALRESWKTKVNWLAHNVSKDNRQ

[32] = target: Serine/threonine-protein kinase mTOR (Homo sapiens) (UniProt P42345); assay: Inhibition of human m-TOR (L1382 to W2549 residues) expressed in mammalian expression system at 1 uM relative to control
[33] = Cmax in patient with solid tumor at 30 mg, po bid by LC-MS/MS analysis; type: ADME, organism-based; set-up: dose 30 mg, route oral; settings: human, in vivo
[34] = Cmax in patient with solid tumor at 60 mg, po bid by LC-MS/MS analysis; type: ADME, organism-based; set-up: dose 60 mg, route oral; settings: human, in vivo
[35] = Cmax in patient with solid tumor at 15 mg, po bid by LC-MS/MS analysis; type: ADME, organism-based; set-up: dose 15 mg, route oral; settings: human, in vivo
[36] = Cmax in patient with solid tumor at 120 mg, po bid by LC-MS/MS analysis; type: ADME, organism-based; set-up: dose 120 mg, route oral; settings: human, in vivo
[37] = Tmax in patient with solid tumor at 15 mg, po bid by LC-MS/MS analysis; type: ADME, organism-based; settings: human, in vivo
[38] = Tmax in patient with solid tumor at 30 mg, po bid by LC-MS/MS analysis; type: ADME, organism-based; settings: human, in vivo
[39] = Tmax in patient with solid tumor at 60 mg, po bid by LC-MS/MS analysis; type: ADME, organism-based; settings: human, in vivo
[40] = Tmax in patient with solid tumor at 120 mg, po bid by LC-MS/MS analysis; type: ADME, organism-based; settings: human, in vivo
[41] = AUC (0 to 12 hrs) in patient with solid tumor at 15 mg, po bid by LC-MS/MS analysis; type: ADME, organism-based; set-up: time < 12 hr, dose 15 mg, route oral; settings: human, in vivo
[42] = AUC (0 to 12 hrs) in patient with solid tumor at 30 mg, po bid by LC-MS/MS analysis; type: ADME, organism-based; set-up: time < 12 hr, dose 30 mg, route oral; settings: human, in vivo
[43] = AUC (0 to 12 hrs) in patient with solid tumor at 60 mg, po bid by LC-MS/MS analysis; type: ADME, organism-based; set-up: dose 60 mg, time < 12 hr, route oral; settings: human, in vivo
[44] = AUC (0 to 12 hrs) in patient with solid tumor at 120 mg, po bid by LC-MS/MS analysis; type: ADME, organism-based; set-up: dose 120 mg, time < 12 hr, route oral; settings: human, in vivo
[45] = system: Mus musculus; assay: Toxicity in immunocompromised mouse xenografted with human SW620 cells at 20 mg/kg, po qd administered on days 2 to 4 of weekly cycle in presence of irinotecan; type: organism-based; settings: in vivo
[46] = system: SW-620; assay: Potentiation of irinotecan-induced tumor regression against human SW620 cells xenografted in immunocompromised mouse at 20 mg/kg, po qd administered on days 2 to 4 of weekly cycle; type: functional, organism-based
[47] = system: Mus musculus; assay: Toxicity in immunocompromised mouse xenografted with human HBCx-10 cells at 5 mg/kg, po qd administered on days 1 to 3 of weekly cycle in presence of olaparib; type: organism-based; settings: in vivo
[48] = system: Homo sapiens; assay: Potentiation of […]-induced tumor regression against human HBCx-10 cells xenografted in immunocompromised mouse at 5 mg/kg, po qd administered on days 1 to 3 of weekly cycle; type: functional, organism-based
[49] = system: SW-620; assay: Antitumor activity against human SW620 cells xenografted in immunocompromised mouse assessed as tumor regression at 20 mg/kg, po qd administered on days 2 to 4 of weekly cycle; type: functional, organism-based

Voltage-gated inwardly rectifying potassium channel KCNH2, sequence (Q12809 whole entry): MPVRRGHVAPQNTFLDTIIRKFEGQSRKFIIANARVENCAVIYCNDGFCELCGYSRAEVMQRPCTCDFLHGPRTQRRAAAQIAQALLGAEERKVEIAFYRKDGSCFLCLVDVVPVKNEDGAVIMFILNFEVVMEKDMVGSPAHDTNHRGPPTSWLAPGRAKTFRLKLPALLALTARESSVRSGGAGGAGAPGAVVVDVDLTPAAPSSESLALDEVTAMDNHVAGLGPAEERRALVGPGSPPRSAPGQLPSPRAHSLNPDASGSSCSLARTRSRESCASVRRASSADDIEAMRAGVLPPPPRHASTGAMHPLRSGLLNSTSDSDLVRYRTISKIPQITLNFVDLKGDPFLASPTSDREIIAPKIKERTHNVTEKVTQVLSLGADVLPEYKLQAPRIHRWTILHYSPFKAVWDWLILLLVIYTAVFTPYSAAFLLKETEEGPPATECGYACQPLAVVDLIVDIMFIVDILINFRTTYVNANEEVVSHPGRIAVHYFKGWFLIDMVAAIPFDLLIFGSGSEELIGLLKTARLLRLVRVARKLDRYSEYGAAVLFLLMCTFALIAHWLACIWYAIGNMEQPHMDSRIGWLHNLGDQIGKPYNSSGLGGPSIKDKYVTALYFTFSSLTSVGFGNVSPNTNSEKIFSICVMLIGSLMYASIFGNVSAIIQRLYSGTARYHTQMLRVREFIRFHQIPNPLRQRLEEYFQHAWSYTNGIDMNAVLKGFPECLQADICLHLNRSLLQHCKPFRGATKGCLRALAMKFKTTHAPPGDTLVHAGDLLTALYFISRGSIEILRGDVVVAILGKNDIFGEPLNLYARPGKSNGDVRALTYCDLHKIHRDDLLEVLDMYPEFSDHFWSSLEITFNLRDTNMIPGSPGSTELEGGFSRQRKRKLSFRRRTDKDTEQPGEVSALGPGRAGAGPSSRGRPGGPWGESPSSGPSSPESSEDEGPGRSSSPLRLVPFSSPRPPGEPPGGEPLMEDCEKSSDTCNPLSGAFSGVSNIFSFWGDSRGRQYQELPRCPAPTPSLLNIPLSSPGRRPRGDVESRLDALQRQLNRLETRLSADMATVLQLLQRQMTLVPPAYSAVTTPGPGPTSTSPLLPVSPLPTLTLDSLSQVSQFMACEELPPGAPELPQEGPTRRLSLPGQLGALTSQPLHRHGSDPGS
Phosphatidylinositol 4,5-bisphosphate 3-kinase catalytic subunit gamma isoform, sequence (P48736 whole entry, the tested form may be a part, canonical isoform): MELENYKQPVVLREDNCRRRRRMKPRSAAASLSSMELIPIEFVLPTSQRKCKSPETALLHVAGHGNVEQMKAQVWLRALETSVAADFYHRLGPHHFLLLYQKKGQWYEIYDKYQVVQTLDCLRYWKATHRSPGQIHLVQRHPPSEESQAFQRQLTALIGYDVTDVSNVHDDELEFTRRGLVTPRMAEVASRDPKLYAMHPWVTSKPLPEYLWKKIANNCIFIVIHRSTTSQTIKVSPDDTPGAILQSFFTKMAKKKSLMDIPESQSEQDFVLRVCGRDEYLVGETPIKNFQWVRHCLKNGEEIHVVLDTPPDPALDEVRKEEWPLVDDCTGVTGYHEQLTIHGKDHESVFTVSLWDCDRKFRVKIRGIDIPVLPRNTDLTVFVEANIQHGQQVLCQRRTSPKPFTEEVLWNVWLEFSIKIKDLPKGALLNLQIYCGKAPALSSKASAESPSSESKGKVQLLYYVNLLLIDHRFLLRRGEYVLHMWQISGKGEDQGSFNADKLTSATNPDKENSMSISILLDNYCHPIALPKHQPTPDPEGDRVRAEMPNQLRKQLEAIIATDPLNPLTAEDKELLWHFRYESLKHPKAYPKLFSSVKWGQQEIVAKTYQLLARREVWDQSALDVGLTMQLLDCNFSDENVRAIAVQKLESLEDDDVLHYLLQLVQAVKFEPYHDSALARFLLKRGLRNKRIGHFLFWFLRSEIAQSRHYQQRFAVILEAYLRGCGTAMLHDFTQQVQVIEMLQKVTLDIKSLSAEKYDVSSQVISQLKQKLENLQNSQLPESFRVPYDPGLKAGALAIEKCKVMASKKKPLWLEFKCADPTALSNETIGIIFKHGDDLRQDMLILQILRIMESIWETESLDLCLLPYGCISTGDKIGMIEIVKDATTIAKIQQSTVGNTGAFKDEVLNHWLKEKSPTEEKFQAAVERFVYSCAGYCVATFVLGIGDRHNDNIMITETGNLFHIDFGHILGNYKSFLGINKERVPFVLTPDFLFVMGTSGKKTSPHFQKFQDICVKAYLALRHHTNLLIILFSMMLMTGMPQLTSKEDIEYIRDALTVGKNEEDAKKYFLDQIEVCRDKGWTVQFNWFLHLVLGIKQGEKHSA
Phosphatidylinositol 4,5-bisphosphate 3-kinase catalytic subunit beta isoform, sequence (P42338 whole entry, the tested form may be a part, canonical isoform): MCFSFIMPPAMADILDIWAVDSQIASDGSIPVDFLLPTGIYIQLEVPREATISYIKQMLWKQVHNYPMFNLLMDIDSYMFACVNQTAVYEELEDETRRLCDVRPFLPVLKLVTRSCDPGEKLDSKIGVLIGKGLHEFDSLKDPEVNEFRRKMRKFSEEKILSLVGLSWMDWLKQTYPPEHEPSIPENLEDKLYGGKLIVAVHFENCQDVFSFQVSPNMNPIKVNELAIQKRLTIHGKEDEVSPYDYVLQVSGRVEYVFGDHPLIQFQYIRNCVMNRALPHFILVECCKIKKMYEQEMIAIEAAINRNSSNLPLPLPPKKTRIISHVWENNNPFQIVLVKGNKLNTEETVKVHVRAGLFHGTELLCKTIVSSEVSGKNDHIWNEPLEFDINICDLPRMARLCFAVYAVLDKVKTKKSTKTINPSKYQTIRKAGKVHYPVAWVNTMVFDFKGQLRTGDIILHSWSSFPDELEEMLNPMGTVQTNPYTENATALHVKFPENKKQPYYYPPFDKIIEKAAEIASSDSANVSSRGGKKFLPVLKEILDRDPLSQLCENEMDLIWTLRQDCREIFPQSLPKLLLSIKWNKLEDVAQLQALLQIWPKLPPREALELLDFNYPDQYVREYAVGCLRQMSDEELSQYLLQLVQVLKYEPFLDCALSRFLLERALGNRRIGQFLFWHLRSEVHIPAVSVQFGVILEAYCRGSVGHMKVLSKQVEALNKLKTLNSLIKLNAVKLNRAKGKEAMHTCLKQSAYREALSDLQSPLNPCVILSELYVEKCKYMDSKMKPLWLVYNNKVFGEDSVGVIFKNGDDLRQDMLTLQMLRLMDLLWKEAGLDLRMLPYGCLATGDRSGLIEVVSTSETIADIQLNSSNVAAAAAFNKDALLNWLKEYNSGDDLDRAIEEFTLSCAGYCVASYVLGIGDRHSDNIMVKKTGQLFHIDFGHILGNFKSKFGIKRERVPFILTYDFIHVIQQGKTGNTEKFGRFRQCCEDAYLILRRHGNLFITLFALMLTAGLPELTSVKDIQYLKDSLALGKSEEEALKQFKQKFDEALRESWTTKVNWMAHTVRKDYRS
Cytochrome P450 2C9, sequence (P11712 whole entry): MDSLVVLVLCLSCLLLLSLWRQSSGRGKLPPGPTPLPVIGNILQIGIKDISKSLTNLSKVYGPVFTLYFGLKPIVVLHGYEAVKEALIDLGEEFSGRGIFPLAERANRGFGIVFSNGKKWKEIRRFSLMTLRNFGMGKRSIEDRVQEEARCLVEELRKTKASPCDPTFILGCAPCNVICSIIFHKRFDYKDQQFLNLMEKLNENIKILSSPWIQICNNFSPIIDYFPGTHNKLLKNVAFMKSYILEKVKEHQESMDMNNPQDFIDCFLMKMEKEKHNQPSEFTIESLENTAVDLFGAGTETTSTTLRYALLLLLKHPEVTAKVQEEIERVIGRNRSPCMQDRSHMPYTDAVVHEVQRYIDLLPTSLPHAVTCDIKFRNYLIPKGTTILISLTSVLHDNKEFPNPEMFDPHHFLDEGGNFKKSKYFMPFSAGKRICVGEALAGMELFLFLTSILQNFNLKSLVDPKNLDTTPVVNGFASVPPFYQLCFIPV
Cytochrome P450 2D6, sequence (P10635 whole entry): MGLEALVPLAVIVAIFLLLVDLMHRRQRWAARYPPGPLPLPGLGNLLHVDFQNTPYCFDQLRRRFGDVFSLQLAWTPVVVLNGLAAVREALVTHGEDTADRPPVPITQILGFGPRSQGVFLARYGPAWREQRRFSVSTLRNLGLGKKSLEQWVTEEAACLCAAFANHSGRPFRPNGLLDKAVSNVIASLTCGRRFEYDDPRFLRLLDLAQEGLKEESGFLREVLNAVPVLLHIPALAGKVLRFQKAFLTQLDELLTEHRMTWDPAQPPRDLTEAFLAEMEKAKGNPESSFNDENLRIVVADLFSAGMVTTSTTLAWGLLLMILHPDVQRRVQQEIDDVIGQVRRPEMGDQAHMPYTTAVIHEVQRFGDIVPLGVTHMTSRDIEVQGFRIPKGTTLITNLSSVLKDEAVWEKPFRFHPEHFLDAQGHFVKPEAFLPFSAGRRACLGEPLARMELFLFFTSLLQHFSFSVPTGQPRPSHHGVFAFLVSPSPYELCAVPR
Cytochrome P450 2C19, sequence (P33261 whole entry, the tested form may be a part, canonical isoform): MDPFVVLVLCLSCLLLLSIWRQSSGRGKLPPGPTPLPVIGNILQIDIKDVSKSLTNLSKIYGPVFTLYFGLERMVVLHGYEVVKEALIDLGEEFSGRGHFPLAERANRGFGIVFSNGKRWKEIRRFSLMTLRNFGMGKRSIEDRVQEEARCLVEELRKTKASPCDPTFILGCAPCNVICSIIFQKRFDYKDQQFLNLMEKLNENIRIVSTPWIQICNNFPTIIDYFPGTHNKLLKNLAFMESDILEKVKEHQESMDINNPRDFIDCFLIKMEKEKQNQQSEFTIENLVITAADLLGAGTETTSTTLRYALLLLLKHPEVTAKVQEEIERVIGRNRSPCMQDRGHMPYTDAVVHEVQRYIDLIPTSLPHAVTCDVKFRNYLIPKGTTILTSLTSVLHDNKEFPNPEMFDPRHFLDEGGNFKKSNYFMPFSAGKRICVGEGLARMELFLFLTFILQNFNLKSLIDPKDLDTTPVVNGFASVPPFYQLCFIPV

With `CO[C@H]1C[C@@H](n2c(=O)n(C)c3cnc4ccc(-c5ccc(OCCCN(C)C)nc5)cc4c32)C1` the logD [1] was 1.6, the solubility thermodynamic at 24 h [2] was 540 µM (≈ 249 µg/mL) and the hepatocyte CLint [3] was 8.7 µL/min/1e6 cells. The hepatocyte CLint [4] was 5.1 µL/min/1e6 cells, the IC50 [5] was > 33 µM and the Papp A→B [6] was 7.8 ×10⁻⁶ cm/s. For the same compound, the bioavailability [7] was 50%, the Vd [8] was 5.7 L/kg and the pKa [9] was 9.5. For the same compound, the bioavailability [10] was 65%, the Vd [11] was 11 L/kg and the IC50 [12] was > 30 µM. For the same compound, the clearance [13] was 19.5 mL/min/kg, the half-life [14] was 5 h and the half-life [15] was 5 h. The clearance [16] was 27.6 mL/min/kg and the efflux ratio [17] was 3.
For `CN(C)CCCOc1ccc(-c2ccc3ncc4c(c3c2)n(C2CCOCC2)c(=O)n4C)cn1`, the logD [1] was 1.5, the solubility thermodynamic at 24 h [2] was > 800 µM and the Papp A→B [6] was 6.6 ×10⁻⁶ cm/s. It also gave a Papp A→B [18] of 5.6 ×10⁻⁶ cm/s, a bioavailability [7] of 57% and a Vd [8] of 4.3 L/kg. For the same compound, the pKa [9] was 9.6, the bioavailability [10] was 54% and the Vd [11] was 17.6 L/kg. For the same compound, the solubility [19] was > 5000 µg/mL, the solubility [20] was > 5000 µg/mL and the solubility [21] was > 5000 µg/mL. The fraction unbound [22] was 0.11, the Papp A→B [23] was 19 ×10⁻⁶ cm/s and the IC50 [24] was > 30 µM. The IC50 [25] was > 30 µM, the IC50 [26] was > 30 µM and the IC50 [27] was > 30 µM. The IC50 [28] was > 30 µM, the IC50 [29] was 1.8 µM and the IC50 [30] was 1.1 µM. The IC50 [31] was 0.27 µM, the inhibition [32] was 93% and the Cmax [33] was 17.5 ng/mL. For the same compound, the Cmax [34] was 39.6 ng/mL, the Cmax [35] was 6.67 ng/mL and the Cmax [36] was 58.8 ng/mL. For the same compound, the Tmax [37] was 2 h, the Tmax [38] was 2 h and the Tmax [39] was 2.5 h. The Tmax [40] was 2.5 h, the AUC at 12 h [41] was 40.4 ng·h/mL and the AUC at 12 h [42] was 105 ng·h/mL. The AUC at 12 h [43] was 206 ng·h/mL, the AUC at 12 h [44] was 330 ng·h/mL and the Activity [45] was “Non-Toxic”. The Activity [46] was “Active”, the Activity [47] was “Non-Toxic” and the Activity [48] was “Active”. The Activity [49] was “inactive”.
